Numbering of substitutions follows the chain as printed.
Key:
hT1R2/hT1R3 = biological target: T1, hT1R2/hT1R3 (Homo sapiens, UniProt Q7RTX0+Q8TE23); experiment: Ca2+ mobilization dose-response assay, stable cells expressing hT1R2/hT1R3 with G16gust44; type: cell-based; settings: for sensitivity in high (141.4 mM) Cl- buffer vs 10 mM Cl- buffer: 10 mM vs 141.4 mM Cl- buffer
T1 construct: expressed in transfected cells
T1 sequence (Q8TE23 20-839): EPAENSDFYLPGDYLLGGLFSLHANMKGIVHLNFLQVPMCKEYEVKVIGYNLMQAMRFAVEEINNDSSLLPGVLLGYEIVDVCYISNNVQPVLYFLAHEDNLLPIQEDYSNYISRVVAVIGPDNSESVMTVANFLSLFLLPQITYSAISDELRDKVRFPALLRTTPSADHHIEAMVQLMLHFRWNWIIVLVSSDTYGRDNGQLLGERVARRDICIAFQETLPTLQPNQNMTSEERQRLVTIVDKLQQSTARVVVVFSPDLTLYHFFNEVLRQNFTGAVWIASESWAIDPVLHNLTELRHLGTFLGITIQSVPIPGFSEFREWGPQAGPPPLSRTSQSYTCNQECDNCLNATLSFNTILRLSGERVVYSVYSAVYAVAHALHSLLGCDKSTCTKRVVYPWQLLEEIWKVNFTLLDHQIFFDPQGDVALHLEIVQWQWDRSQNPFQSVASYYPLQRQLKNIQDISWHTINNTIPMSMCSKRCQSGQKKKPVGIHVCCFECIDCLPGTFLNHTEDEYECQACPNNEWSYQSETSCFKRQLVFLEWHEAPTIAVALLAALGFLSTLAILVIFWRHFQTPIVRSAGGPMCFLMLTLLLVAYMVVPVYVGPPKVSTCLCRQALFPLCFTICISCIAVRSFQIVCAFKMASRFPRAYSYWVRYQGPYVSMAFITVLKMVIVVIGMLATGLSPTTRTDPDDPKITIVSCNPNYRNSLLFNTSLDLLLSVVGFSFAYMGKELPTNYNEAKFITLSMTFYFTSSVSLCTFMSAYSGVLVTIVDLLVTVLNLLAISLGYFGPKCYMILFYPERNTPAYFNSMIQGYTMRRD
T1 sequence (Q7RTX0 21-852): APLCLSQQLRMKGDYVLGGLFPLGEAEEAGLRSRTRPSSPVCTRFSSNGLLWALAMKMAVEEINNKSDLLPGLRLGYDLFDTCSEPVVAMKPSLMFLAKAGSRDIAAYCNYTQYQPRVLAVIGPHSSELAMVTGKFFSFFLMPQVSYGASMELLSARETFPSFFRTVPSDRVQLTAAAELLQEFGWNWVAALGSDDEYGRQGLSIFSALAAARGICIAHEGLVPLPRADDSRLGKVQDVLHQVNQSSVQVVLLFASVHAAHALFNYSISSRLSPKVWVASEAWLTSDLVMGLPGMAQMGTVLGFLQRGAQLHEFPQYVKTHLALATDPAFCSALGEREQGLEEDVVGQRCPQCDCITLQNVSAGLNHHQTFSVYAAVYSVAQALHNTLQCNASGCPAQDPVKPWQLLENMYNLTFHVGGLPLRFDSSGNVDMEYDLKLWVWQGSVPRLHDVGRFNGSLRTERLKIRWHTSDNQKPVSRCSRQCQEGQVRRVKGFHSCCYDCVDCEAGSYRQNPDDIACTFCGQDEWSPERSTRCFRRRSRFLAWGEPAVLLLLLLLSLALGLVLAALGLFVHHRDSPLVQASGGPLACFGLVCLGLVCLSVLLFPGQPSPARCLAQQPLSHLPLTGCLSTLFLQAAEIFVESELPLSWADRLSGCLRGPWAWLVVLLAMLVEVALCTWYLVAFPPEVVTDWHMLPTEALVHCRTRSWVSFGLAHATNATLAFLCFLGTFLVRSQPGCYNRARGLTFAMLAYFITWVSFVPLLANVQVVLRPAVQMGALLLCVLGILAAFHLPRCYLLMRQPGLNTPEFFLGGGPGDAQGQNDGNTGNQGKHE
Procedure: (§1) The buffers with lower Cl^− were prepared by progressively replacing NaCl, KCl, CaCl2 and MgCl2 in the buffer with gluconate equivalents[20]. The pH was adjusted to 7.4 with NaOH. Ligands were diluted with the assay buffers at the desired concentrations.
Measurements of the responses of the cells by cell-based assay based on the intracellular Ca^2+ mobilization were carried out as described previously with some modifications[20],[34],[46],[47]. […] The cells were seeded in 96-well plates (clear-bottomed CellBIND surface plate, Corning, Glendale, AZ, USA) coated with ε-poly-L-lysine (Cosmo Bio, Tokyo, Japan) at approximately 70,000 cells per well. After 20 h, the medium was removed and replaced with high Cl^− buffer. After 3 h 30 min incubation at 27 °C, cells were loaded with 5 µM calcium-indicator dye Fluo-8 AM (AAT Bioquest, Sunnyvale, CA, USA) diluted in high Cl^− buffer. After incubation for 30 min at 27 °C, the cells were washed with buffers containing appropriate concentrations of Cl^−. The cellular assay was initiated after 3–5 min of resting and was completed within 5 min. The measurements were made using FlexStation 3 (Molecular Devices, Sunnyvale, CA, USA) at 27 °C. Fluorescence changes (i.e., excitation at 485 nm and emission at 525 nm with a cutoff at 515 nm) were monitored at 2 s intervals. A 100-µL aliquot of assay buffer supplemented with 2 × ligands was added at 20 s, and scanning was continued for an additional 40 s. The response of each well was determined as ∆RFU (delta relative fluorescent units), which was calculated as (maximum fluorescent value)—(minimum fluorescent value). […] Such normalized data from more than three independent experiments are reported as the mean ± standard error of the mean (SEM). Dose‒response fitting curves were calculated by Prism 9 (GraphPad Software, San Diego, CA) using nonlinear regression (log(agonist) vs. response—variable slope), based on the integrated data from the several independent experiments.

mfT1R2a/mfT1R3 = biological target: T2, mfT1R2a/mfT1R3 (Oryzias latipes, UniProt Q2MHK2+Q2MHK5); experiment: Effect of anions, cations and osmotic pressure on cellular responses, cells in 10 mM Cl- buffer, mfT1R2a/mfT1R3; type: cell-based, medaka fish
T2 sequence (Q2MHK5 20-819): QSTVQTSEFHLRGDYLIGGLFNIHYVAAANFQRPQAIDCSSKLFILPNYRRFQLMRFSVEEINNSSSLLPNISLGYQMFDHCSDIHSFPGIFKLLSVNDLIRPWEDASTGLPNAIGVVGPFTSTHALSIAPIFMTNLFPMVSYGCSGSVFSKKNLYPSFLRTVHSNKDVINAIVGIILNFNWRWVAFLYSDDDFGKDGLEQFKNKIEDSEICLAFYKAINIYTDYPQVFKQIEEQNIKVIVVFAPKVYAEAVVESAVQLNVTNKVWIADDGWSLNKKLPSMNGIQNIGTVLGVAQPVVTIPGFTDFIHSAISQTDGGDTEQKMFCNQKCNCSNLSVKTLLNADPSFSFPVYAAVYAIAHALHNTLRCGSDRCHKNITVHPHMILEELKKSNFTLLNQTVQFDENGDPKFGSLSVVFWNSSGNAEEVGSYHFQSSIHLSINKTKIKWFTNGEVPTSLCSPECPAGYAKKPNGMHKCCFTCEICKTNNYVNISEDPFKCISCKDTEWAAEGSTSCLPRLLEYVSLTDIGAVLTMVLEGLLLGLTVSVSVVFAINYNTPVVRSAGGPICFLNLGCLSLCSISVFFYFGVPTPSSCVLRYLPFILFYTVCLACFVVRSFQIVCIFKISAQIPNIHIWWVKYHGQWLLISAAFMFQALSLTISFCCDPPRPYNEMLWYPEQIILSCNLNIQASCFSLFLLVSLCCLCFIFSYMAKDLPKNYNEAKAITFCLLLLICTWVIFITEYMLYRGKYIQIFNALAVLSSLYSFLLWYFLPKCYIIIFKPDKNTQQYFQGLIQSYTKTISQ
T2 sequence (Q2MHK2 20-853): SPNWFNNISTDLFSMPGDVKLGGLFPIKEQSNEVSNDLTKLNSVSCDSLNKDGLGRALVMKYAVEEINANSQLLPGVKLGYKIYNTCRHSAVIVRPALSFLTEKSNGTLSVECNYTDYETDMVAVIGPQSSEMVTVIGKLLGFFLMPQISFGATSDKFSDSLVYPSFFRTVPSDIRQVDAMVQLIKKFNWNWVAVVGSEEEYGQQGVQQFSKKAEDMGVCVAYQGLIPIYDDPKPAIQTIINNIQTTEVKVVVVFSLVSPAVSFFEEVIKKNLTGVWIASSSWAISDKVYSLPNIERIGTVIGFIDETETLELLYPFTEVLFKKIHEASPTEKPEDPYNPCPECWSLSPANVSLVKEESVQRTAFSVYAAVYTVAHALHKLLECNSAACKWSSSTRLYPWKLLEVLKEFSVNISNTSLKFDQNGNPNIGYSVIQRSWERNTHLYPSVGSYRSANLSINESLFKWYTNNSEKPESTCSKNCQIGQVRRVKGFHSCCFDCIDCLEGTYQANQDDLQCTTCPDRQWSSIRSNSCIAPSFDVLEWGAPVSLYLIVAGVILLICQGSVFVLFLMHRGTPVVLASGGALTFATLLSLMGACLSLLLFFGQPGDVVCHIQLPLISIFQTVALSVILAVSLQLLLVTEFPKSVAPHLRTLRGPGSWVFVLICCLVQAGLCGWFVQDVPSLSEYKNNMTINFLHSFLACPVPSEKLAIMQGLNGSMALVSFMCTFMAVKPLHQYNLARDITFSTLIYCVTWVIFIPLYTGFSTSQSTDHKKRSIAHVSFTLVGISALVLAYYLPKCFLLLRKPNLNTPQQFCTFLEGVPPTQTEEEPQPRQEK
Procedure: Cells were seeded in 96-well plates coated with ε-poly-L-lysine at approximately 70,000 cells per well. […] Fluorescence changes were monitored at 2 s intervals, as described above. […] Three independent experiments were conducted for each receptor, and representative results are shown as the mean ± SEM (n = 3 replicates). Statistical tests were conducted using KyPlot version 6.0 (KyensLab Inc., Tokyo, Japan). Statistical significance was set at p < 0.05.

hT1R2/hT1R3 T102E = biological target: T3, hT1R2/hT1R3 T102E (Homo sapiens, UniProt Q7RTX0+Q8TE23, T102E); experiment: Ca2+ mobilization dose-response assay, site X mutant hT1R2/hT1R3 T102E; settings: EC50, [Cl-]o=10 mM; unit inferred
T3 sequence (Q8TE23 20-839): T1 sequence (Q8TE23 20-839)
T3 sequence (Q7RTX0 21-852 T102E): T1 sequence (Q7RTX0 21-852) with T82E
Procedure: as §1
Measurements of the responses of the cells by cell-based assay based on the intracellular Ca^2+ mobilization were carried out as described previously with some modifications[20],[34],[46],[47]. Cell lines stably expressing T1R2, T1R3 and chimeric G-protein α-subunit, G16gust44[48], were constructed using the Flp-In pcDNA5/FRT complete system (Thermo Fisher Scientific, Waltham, MA, USA) described in our previous studies[34],[46]. […] Fluorescence changes (i.e., excitation at 485 nm and emission at 525 nm with a cutoff at 515 nm) were monitored at 2 s intervals. […] The response of each well was determined as ∆RFU (delta relative fluorescent units), which was calculated as (maximum fluorescent value)—(minimum fluorescent value). […] Dose‒response fitting curves were calculated by Prism 9 (GraphPad Software, San Diego, CA) using nonlinear regression (log(agonist) vs. response—variable slope), based on the integrated data from the several independent experiments.

Row | sensitivity in high (141.4 mM) Cl- buffer vs 10 mM Cl- buffer (hT1R2/hT1R3) | additional anion concentration needed to significantly increase the response intensity to L-Gln (mfT1R2a/mfT1R3; added to 10 mM Cl- buffer with 200 µM L-Gln) [mM] | response to fixed concentration of L-Gln on coapplication (mfT1R2a/mfT1R3; coapplied with 200 µM L-Gln, cells in 10 mM Cl- buffer, final [Cl-]o up to 60 mM) | cellular response to the salt alone (mfT1R2a/mfT1R3; without agonist, cells in 10 mM Cl- buffer) | EC50 (hT1R2/hT1R3 T102E) [µM] | EC50 (hT1R2/hT1R3; [Cl-]o=10 mM, unit inferred) [µM] | SMILES
1 | comparable | – | – | – | – | – | N[C@H](Cc1c[nH]c2ccccc12)C(=O)O [D-tryptophan]
2 | – | 5 | enhanced | did not elicit | – | – | [Br-].[Na+] [NaBr]
3 | comparable | – | – | – | 169 | 92.5 | OC[C@H]1O[C@H](O[C@]2(CCl)O[C@H](CCl)[C@@H](O)[C@@H]2O)[C@H](O)[C@@H](O)[C@H]1Cl [sucralose, Sucralose]

From paper PMC10539361, “Allosteric modulation of the fish taste receptor type 1 (T1R) family by the extracellular chloride ion” (Scientific Reports, 2023)
